The values that follow come from patent US10004732B2 (Novartis AG, priority 2014, dated 2018).

Some results are limits rather than exact numbers.

Data set [1] concerns the target T1, PI 3-kinase alpha (Homo sapiens, UniProt P42336). The data set is described as follows: Kinase Glo Luminescent Kinase Assay (Kglo), assay A. The class given is biochemical. To be noted: read-out: Assay A PI3Kα IC50. Background: Kinase-Glo measures the ATP left after a reaction by luminescence.
Data set [2] deals with T2, PI 3-kinase beta (Homo sapiens, UniProt P42338). As to the kind of experiment: Kinase Glo Luminescent Kinase Assay (Kglo), assay B. To be noted: read-out: Assay B PI3Kβ IC50. Format: biochemical.
Target sequence in this assay (P42338 whole entry): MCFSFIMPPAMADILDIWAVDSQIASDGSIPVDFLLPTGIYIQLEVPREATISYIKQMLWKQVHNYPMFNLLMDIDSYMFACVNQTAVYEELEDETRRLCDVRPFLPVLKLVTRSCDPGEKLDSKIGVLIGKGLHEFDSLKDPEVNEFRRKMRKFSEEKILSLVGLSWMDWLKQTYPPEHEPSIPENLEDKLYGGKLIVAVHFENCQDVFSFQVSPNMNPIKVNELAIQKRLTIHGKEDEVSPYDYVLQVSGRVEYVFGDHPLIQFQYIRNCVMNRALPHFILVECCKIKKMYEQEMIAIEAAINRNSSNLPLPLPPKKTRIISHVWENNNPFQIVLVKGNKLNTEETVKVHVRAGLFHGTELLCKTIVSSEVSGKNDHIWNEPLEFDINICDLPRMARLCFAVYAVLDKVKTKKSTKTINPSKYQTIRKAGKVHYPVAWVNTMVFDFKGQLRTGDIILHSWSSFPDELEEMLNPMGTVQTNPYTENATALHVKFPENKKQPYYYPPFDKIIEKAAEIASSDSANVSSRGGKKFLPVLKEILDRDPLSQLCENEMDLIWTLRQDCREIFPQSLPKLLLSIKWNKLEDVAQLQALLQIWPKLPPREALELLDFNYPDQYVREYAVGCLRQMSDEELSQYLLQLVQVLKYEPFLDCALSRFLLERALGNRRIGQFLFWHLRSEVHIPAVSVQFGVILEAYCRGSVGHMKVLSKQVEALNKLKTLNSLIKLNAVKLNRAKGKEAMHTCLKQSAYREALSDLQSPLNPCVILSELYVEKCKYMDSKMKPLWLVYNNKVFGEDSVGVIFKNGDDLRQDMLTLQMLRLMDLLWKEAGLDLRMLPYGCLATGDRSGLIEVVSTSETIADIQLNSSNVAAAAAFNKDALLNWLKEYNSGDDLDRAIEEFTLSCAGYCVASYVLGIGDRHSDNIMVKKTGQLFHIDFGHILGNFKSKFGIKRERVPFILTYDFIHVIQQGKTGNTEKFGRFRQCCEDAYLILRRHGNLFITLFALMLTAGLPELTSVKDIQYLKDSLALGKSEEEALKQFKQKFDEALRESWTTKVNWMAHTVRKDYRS
Target sequence in this assay (P27986 461-568 partner): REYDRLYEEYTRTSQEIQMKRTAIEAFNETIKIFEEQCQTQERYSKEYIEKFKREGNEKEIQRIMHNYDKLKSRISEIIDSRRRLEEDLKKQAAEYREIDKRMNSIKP
Data set [3] deals with Vps34 (Homo sapiens, UniProt Q8NEB9). The data set is described as follows: Kinase Glo Luminescent Kinase Assay (Kglo), assay C. The class given is biochemical. To be noted: read-out: Assay C VPS34 IC50.
The target in data set [4] is PI 4-kinase beta (Homo sapiens, UniProt Q9UBF8). As to the kind of experiment: Kinase Glo Luminescent Kinase Assay (Kglo), assay D. The class given is biochemical. The conditions noted are these: read-out: Assay D PI4Kβ IC50.
The target of data set [5] is T3, PI 3-kinase gamma (Homo sapiens, UniProt P48736). As to the kind of experiment: TR-FRET Adapta assay, assay E. The class given is biochemical. The conditions noted are these: read-out: Assay E PI3Kγ IC50.
In data set [6] the target is mTOR (Homo sapiens, UniProt P42345). The data set is described as follows: Lanthascreen kinase binding assay, assay G. To be noted: read-out: Assay G mTOR IC50.
Protocol: Lanthascreen™ Kinase Binding Assay for mTOR (G)
Binding of an inhibitor to the kinase competes for binding with the tracer, resulting in a loss of FRET.
50 nL of compound dilutions were dispensed onto white 384-well small volume polystyrene plate.
Data set [7] concerns the target T1, PI 3-kinase alpha. The data set is described as follows: Cellular assay H1, p-Akt (S473) in Rat-1 cells, Surefire format. The class given is cell-based. To be noted: non-asterisked data: version H1 (Surefire format), Rat-1 cells; read-out: Assay H PI3Kα IC50.
For data set [8], the target named is T2, PI 3-kinase beta. The data set is described as follows: Cellular assay I1, p-Akt (S473) in Rat-1 cells, Surefire format. The class given is cell-based. The conditions noted are these: non-asterisked data: version I1 (Surefire format), Rat-1 cells; read-out: Assay I PI3Kβ IC50.
Target sequence in this assay (P42338 whole entry): as the sequence (P42338 whole entry) above
Target sequence in this assay (Q63787 whole entry partner): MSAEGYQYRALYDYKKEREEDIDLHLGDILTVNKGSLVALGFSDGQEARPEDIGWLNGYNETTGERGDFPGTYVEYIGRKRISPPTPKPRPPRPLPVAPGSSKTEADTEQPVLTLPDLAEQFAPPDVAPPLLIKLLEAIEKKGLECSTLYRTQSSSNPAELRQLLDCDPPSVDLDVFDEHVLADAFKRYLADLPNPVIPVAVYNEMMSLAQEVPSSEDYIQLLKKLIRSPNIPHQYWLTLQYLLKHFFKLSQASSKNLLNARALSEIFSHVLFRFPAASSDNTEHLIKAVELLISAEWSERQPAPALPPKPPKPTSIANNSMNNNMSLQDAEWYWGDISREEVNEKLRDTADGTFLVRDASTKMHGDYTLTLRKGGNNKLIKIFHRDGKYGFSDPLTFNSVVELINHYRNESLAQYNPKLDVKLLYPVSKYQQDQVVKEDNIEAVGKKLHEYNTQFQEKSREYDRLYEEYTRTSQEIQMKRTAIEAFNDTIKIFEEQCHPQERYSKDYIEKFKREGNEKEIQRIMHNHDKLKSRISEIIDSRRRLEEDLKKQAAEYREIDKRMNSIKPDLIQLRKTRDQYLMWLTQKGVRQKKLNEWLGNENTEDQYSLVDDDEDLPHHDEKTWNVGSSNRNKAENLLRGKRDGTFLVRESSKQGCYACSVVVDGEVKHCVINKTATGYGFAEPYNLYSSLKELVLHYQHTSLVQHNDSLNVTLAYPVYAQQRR
Data set [9] concerns the target T4, PI 3-kinase delta (Homo sapiens, UniProt O00329). As to the kind of experiment: Cellular assay J1, p-Akt (S473) in Rat-1 cells, Surefire format. The conditions noted are these: non-asterisked data: version J1 (Surefire format), Rat-1 cells; read-out: Assay J PI3Kδ IC50. The class given is cell-based.
Data set [10] deals with T3, PI 3-kinase gamma. As to the kind of experiment: Cellular U937 AKT assay K1 (MSD). Format: cell-based. To be noted: U937 cells, K1 format; read-out: Assay K1 PI3Kγ IC50.
The subject of data set [11] is IL-8-induced neutrophil shape change in human whole blood. The data set is described as follows: Whole blood neutrophil shape change assay (L). Format: cell-based. The conditions noted are these: Homo sapiens, Neutrophil, IL-8, human whole blood, read-out: Assay L WBSC IC50.
Data set [12] addresses T4, PI 3-kinase delta. The data set is described as follows: TR-FRET Adapta assay, assay F.
A short description of data set [13]: Microsomal clearance assay (M). The conditions noted are these: intrinsic clearance in rat liver microsomes. Background: Liver microsomes are vesicles of endoplasmic reticulum, rich in cytochrome P450 enzymes.
Protocol: The experiments were performed in 96-well glass plates at 37° C. on an automated Tecan EVO platform. Test compounds at a concentration of 10 mM in pure DMSO were diluted 1:1000 in water to 10 μM. […] Reactions were initiated by the addition of 150 μL of a cofactor solution containing 2 mM NADPH.

T3 sequence (P48736 whole entry): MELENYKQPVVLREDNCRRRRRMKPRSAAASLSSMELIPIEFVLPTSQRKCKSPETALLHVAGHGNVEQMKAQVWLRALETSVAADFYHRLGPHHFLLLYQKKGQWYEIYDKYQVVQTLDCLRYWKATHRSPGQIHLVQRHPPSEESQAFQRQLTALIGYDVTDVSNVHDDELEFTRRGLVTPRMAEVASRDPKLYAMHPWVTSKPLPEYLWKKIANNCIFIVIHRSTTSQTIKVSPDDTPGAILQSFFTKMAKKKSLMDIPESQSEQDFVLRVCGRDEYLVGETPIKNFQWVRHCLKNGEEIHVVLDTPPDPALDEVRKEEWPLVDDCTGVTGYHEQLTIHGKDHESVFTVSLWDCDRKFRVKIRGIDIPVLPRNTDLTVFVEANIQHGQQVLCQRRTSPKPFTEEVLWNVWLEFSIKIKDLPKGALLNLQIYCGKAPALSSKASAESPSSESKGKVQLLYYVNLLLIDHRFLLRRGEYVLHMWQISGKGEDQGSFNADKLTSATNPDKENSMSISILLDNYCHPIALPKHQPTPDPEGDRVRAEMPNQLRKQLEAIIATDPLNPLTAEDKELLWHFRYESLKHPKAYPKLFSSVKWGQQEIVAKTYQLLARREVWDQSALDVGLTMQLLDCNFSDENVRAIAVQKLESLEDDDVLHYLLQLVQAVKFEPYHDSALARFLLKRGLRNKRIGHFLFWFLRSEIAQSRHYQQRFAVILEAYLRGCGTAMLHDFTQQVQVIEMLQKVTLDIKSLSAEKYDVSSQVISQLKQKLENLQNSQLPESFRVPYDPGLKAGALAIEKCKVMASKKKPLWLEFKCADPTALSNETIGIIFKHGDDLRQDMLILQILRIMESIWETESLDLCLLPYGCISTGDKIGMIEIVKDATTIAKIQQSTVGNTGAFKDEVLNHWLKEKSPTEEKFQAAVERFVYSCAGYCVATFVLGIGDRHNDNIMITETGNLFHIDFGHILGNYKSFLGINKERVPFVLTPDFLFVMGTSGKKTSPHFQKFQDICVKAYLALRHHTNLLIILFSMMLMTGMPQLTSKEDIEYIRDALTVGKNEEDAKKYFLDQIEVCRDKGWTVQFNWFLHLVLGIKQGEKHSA
Chain of PI 4-kinase beta (Q9UBF8 whole entry): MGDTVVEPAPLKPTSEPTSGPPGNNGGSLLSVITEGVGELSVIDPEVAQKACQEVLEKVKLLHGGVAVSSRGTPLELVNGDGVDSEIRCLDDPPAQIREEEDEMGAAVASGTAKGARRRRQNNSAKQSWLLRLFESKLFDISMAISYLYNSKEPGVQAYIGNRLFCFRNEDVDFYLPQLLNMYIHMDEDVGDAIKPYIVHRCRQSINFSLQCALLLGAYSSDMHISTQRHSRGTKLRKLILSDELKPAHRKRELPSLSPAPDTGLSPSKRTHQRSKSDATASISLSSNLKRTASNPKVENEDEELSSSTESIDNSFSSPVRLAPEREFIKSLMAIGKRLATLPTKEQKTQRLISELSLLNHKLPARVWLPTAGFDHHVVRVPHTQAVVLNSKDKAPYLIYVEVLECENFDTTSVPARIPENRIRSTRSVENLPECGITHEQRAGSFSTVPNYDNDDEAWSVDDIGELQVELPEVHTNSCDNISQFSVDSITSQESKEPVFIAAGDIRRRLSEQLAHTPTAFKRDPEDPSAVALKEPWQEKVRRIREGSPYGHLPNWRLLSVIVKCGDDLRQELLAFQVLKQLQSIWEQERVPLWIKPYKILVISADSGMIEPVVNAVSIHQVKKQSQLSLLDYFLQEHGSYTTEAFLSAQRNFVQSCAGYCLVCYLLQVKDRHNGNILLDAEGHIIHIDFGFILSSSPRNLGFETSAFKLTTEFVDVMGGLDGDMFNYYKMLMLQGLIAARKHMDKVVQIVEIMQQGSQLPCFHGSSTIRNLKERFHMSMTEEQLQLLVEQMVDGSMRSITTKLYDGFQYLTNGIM
Chain of Vps34 (Q8NEB9 whole entry, species assumed): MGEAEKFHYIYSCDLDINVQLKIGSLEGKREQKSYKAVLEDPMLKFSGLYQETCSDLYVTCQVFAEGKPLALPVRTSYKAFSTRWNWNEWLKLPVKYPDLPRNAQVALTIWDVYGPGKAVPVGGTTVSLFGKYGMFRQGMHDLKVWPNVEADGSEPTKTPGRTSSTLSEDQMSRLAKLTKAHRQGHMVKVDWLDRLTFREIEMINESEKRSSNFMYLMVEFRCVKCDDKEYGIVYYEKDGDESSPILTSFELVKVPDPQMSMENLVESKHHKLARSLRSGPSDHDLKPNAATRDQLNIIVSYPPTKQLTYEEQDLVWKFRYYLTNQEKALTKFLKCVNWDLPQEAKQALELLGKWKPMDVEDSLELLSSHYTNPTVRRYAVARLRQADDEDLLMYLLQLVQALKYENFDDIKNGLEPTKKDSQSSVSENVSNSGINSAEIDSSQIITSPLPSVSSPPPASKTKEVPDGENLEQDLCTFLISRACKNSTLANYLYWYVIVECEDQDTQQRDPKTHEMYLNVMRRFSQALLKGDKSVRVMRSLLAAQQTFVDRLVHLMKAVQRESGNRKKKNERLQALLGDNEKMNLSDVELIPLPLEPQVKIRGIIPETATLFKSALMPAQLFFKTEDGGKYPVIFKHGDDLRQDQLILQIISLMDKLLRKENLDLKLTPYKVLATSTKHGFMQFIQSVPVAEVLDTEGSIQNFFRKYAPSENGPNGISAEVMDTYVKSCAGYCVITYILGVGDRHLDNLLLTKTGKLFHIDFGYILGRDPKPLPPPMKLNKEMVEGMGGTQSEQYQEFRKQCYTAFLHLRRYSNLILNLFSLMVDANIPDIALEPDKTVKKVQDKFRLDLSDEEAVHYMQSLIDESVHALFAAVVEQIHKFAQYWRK

Consider `Cc1cc(-c2nc(-c3cc(S(=O)(=O)NCC4(O)COC4)ccc3C)cnc2N)ccn1` [Example 129.32, 3-(5-amino-6-(2-methylpyridin-4-yl)pyrazin-2-yl)-N-((3-hydroxyoxetan-3-yl)methyl)-4-methylbenzenesulfonamide], for which the IC50 (usually the concentration needed to halve the response being measured) is 2000 nM in [1]; 7000 nM in [2]; more than 9100 nM in data set [3]; more than 9100 nM in data set [4]; 39 nM in data set [5]; more than 9100 nM in [6]. In addition, the IC50 in data set [7] is more than 10000 nM; in data set [8], more than 10000 nM; in data set [9] it was more than 10000 nM; in data set [10], 800 nM; in data set [11] it was 2000 nM; in data set [12] (read-out: Assay F PI3Kδ IC50), 1800 nM. In data set [13], the “Assay M RLM CI(int)” value is 18 µL/min/mg.
Consider `Cc1ccc(S(=O)(=O)NC[C@H]2CCOC2)cc1-c1cnc(N)c(-c2cn(C)nc2C)n1` [Example 16, 3-[5-Amino-6-(1,3-dimethyl-1H-pyrazol-4-yl)-pyrazin-2-yl]-4-methyl-N—[(R)-1-(tetrahydrofuran-3-yl)methyl]-benzenesulfonamide], for which the half-maximal inhibitory concentration (IC50) was 140 nM in [1]; 1020 nM in data set [2]; more than 10000 nM in [3]; 6400 nM in data set [4]; 9 nM in data set [5]; 5300 nM in data set [6]. Moreover, the IC50 in data set [7] was determined as 900 nM; in [8], 1860 nM; in data set [9], 620 nM; in data set [10], 43 nM; in data set [11], 154 nM; in data set [12] (read-out: Assay F PI3Kδ IC50) it was 250 nM. The “Assay M RLM CI(int)” value in data set [13] was 47 µL/min/mg.
As to `Cc1ccc(S(=O)(=O)NC2CCC(F)(F)CC2)cc1-c1cnc(N)c(-c2cnn(C)c2)n1` [Example 54, 3-(5-Amino-6-(1-methyl-1H-pyrazol-4-yl)pyrazin-2-yl)-N-(4,4-difluorocyclohexyl)-4-methylbenzenesulfonamide], the IC50 in [1] is 190 nM; in data set [2], 770 nM; in data set [3], more than 9100 nM; in data set [4], more than 9100 nM; in data set [5], 17 nM; in data set [6], 4810 nM. For the same molecule, the IC50 amounted to 1690 nM in data set [7]; 7410 nM in data set [8]; 2030 nM in [9]; 140 nM in data set [10]; 2010 nM in [11]; 110 nM in data set [12] (read-out: Assay F PI3Kδ IC50). In [13], the “Assay M RLM CI(int)” value worked out at 141 µL/min/mg.
`Cc1cc(-c2nc(-c3cc(S(=O)(=O)N[C@H]4CC[C@H](O)CC4)ccc3C)cnc2N)ccn1` [Example 135, 3-(5-Amino-6-(2-methylpyridin-4-yl)pyrazin-2-yl)-N-((1r,4r)-4-hydroxycyclohexyl)-4-methylbenzenesulfonamide]: the IC50 in data set [1] was 180 nM; in data set [2] it was 5220 nM; in [3], more than 9550 nM; in data set [4] it was 4160 nM; in data set [5] it was 51 nM; in data set [6], 4370 nM. Besides, the IC50 is 7840 nM in data set [7]; 8750 nM in [8]; 9390 nM in data set [9]; 63 nM in data set [10]; 359 nM in data set [11]; 1700 nM in data set [12]. In addition, the “Assay M RLM CI(int)” value in data set [13] was found to be 30 µL/min/mg.
For `Cc1ccc(S(=O)(=O)NCC2(C)COC2)cc1-c1cnc(N)c(-c2cn(C)nc2C)n1` [Example 17, 3-[5-Amino-6-(1,3-dimethyl-1H-pyrazol-4-yl)-pyrazin-2-yl]-4-methyl-N-(3-methyl-oxetan-3-ylmethyl)-benzenesulfonamide], the IC50 was 220 nM in [1]; 900 nM in [2]; more than 10000 nM in data set [3]; 8300 nM in data set [4]; 10 nM in data set [5]; 6100 nM in data set [6]. Also, the concentration for half-maximal inhibition (IC50) in [7] was determined as 2800 nM; in data set [8] it was 8250 nM; in [9], 1920 nM; in data set [10], 51 nM; in [11], 166 nM; in data set [12] (read-out: Assay F PI3Kδ IC50), 590 nM. The “Assay M RLM CI(int)” value in data set [13] worked out at 34 µL/min/mg.
Regarding `Cc1ccc(S(=O)(=O)NCCC(C)(C)O)cc1-c1cnc(N)c(-c2cnn(CC(F)(F)F)c2)n1` [Example 130, 3-(5-Amino-6-(1-(2,2,2-trifluoroethyl)-1H-pyrazol-4-yl)pyrazin-2-yl)-N-(3-hydroxy-3-methylbutyl)-4-methylbenzenesulfonamide], the IC50 was 150 nM in [1]; 2830 nM in data set [2]; more than 9100 nM in data set [3]; 7010 nM in [4]; 12 nM in data set [5]; 5110 nM in data set [6]. Further, the 50% inhibitory concentration (IC50) stood at 1630 nM in [7]; 4520 nM in data set [8]; 1200 nM in data set [9]; 65 nM in data set [10]; 735 nM in data set [11]; 180 nM in data set [12] (read-out: Assay F PI3Kδ IC50). Besides, the “Assay M RLM CI(int)” value in [13] was 62 µL/min/mg.
Regarding `Cc1ccc(S(=O)(=O)NCCC(C)(C)O)cc1-c1cnc(N)c(-c2csc(CN3CCOCC3)c2)n1` [Example 30, 3-[5-Amino-6-(5-morpholin-4-ylmethyl-thiophen-3-yl)-pyrazin-2-yl]-N-(3-hydroxy-3-methyl-butyl)-4-methyl-benzenesulfonamide], the IC50 in data set [1] is 300 nM; in [2], 5210 nM; in data set [3] it was more than 9100 nM; in [4], 7890 nM; in [5] it was 24 nM; in data set [6], 6990 nM. Moreover, the IC50 is 3810 nM in data set [7]; 1650 nM in data set [8]; 480 nM in data set [9]; 98 nM in [10]; 407 nM in data set [11]; 50 nM in data set [12] (read-out: Assay F PI3Kδ IC50). Besides, the “Assay M RLM CI(int)” value in [13] was found to be 116 µL/min/mg.
As for `Cc1ccc(S(=O)(=O)N[C@H]2CC[C@H](O)CC2)cc1-c1cnc(N)c(-n2cccn2)n1` [Example 103, 3-(5-Amino-6-(1H-pyrazol-1-yl)pyrazin-2-yl)-N-((1r,4r)-4-hydroxycyclohexyl)-4-methylbenzenesulfonamide], the IC50 in data set [1] is 390 nM; in data set [2], 1880 nM; in data set [3], more than 9100 nM; in data set [4], 2740 nM; in data set [5], 13 nM; in [6], more than 9100 nM. Moreover, the IC50 in [7] is 2250 nM; in [8] it was 3250 nM; in [9] it was 850 nM; in data set [10], 28 nM; in data set [11] it was 515 nM; in data set [12] (read-out: Assay F PI3Kδ IC50) it was 150 nM. In addition, the “Assay M RLM CI(int)” value in data set [13] came out at 29 µL/min/mg.
`Cc1ccc(S(=O)(=O)NCC(C)(C)CO)cc1-c1cnc(N)c(-n2cncn2)n1` [Example 73, 3-(5-Amino-6-(1H-1,2,4-triazol-1-yl)pyrazin-2-yl)-N-(3-hydroxy-2,2-dimethylpropyl)-4-methylbenzenesulfonamide]: the IC50 in data set [1] is 350 nM; in data set [2] it was 1830 nM; in data set [3] it was more than 9100 nM; in data set [4], more than 9100 nM; in data set [5], 15 nM; in data set [6] it was more than 9100 nM. Besides, the IC50 in data set [7] worked out at 2260 nM; in data set [8], 5380 nM; in data set [9], 2000 nM; in [10] it was 177 nM; in data set [11], 803 nM; in [12] (read-out: Assay F PI3Kδ IC50) it was 390 nM. The “Assay M RLM CI(int)” value in data set [13] was determined as 64 µL/min/mg.
Consider `Cc1cn(-c2nc(-c3cc(S(=O)(=O)NCCCO)ccc3C)cnc2N)cn1` [Example 57, 3-(5-Amino-6-(4-methyl-1H-imidazol-1-yl)pyrazin-2-yl)-N-(3-hydroxypropyl)-4-methylbenzenesulfonamide], for which the concentration for half-maximal inhibition (IC50) in [1] is 320 nM; in data set [2], 6480 nM; in data set [3] it was more than 9100 nM; in [4], more than 9100 nM; in data set [5], 57 nM; in data set [6], more than 9100 nM. Moreover, the IC50 in [7] is more than 10000 nM; in [8], more than 10000 nM; in data set [9], more than 10000 nM; in data set [10] it was 329 nM; in data set [11], 1270 nM; in data set [12] (read-out: Assay F PI3Kδ IC50) it was 580 nM. Besides, the “Assay M RLM CI(int)” value in data set [13] worked out at 17 µL/min/mg.
